{"source": "ChEMBL document CHEMBL1201862", "about": "“PubChem BioAssay data set” (2004)", "key": {"[1]": {"assay": "Trypanosoma cruzi growth suppression in host cells – NIH3T3 host cells, beta-gal luminescence, confirmation (AID 2044);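 note: luminescent beta-galactosidase reporter signal from transgenic T. cruzi replicating inside host cells; inhibitors lower the luminescence signal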", "assay_type": "functional, cell-based"}, "[2]": {"assay": "NIH3T3 cell viability loss – ATP luminescence, mouse fibroblasts, counter-screen, dose response (AID 2010);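 note: cells exposed to compound for about 90 hours before reading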", "assay_type": "functional, cell-based"}, "[3]": {"target": "Beta-galactosidase (Escherichia coli, UniProt Q8VNN2)", "sequence (Q8VNN2 whole entry)": "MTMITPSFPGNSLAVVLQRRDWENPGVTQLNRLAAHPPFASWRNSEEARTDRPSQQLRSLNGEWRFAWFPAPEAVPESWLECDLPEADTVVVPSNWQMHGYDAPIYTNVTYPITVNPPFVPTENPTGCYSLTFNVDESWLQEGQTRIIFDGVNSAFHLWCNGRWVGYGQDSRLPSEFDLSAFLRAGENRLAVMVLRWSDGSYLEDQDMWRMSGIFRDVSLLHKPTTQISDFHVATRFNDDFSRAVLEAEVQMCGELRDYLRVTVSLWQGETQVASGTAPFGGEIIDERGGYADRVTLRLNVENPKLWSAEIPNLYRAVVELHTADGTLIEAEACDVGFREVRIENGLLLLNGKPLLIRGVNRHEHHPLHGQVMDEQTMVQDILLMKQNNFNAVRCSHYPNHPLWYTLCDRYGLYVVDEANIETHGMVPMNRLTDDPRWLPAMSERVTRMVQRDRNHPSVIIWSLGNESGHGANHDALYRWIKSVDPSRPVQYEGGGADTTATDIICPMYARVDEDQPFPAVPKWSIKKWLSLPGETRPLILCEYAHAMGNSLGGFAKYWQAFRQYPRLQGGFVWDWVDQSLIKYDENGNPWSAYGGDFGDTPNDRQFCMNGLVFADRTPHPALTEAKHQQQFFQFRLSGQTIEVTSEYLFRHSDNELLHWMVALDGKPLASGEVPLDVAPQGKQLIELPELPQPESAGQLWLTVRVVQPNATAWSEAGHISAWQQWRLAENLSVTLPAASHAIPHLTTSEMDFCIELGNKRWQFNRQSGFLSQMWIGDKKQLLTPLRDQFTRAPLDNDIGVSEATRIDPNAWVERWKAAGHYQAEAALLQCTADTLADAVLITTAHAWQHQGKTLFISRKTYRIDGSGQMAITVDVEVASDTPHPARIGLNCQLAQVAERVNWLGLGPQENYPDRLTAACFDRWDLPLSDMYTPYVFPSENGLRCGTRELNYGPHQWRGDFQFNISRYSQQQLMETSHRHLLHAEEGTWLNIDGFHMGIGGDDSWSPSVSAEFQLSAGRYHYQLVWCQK", "assay": "Dose response counterscreen for EBI2 assay utilizing the enzyme, b-galactosidase.", "assay_type": "functional"}, "[4]": {"target": "Beta-lactamase (Salmonella choleraesuis (strain SC-B67), UniProt Q5J463)", "sequence (Q5J463 whole entry)": "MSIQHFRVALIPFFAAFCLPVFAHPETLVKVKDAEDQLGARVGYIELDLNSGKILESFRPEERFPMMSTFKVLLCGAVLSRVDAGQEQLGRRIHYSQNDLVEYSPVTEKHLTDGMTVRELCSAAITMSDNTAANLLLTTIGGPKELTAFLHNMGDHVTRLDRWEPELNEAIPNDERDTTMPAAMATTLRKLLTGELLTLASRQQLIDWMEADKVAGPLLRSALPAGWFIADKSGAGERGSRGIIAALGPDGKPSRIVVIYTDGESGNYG", "assay": "Epi-absorbance-based counterscreen for selective VIM-2 inhibitors: dose response biochemical high throughput screening assay to identify inhibitors of TEM-1 serine-beta-lactamase."}, "[5]": {"target": "T1, Beta-lactamase (Pseudomonas aeruginosa, UniProt Q79MP6)", "T1 sequence (Q79MP6 whole entry)": "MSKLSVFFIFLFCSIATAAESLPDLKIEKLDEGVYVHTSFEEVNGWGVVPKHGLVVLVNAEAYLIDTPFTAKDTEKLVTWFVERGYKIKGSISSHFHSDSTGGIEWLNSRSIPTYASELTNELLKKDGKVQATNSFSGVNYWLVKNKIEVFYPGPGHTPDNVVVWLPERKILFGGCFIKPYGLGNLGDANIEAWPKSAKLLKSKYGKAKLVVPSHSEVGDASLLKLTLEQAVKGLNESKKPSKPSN", "assay": "inhibition of IMP-1 beta-lactamase activity – biochemical, epi-absorbance, selectivity assay for VIM-2 inhibitor project, dose response (AID 1920)"}, "[6]": {"target": "T1, Beta-lactamase", "assay": "[…] counterscreen for selective VIM-2 inhibitors: dose response biochemical high throughput screening assay to identify inhibitors of IMP-1 metallo-beta-lactamase."}, "[7]": {"target": "T2, Cytochrome P450 1A2 (Homo sapiens, UniProt P05177)", "T2 sequence (P05177 whole entry)": "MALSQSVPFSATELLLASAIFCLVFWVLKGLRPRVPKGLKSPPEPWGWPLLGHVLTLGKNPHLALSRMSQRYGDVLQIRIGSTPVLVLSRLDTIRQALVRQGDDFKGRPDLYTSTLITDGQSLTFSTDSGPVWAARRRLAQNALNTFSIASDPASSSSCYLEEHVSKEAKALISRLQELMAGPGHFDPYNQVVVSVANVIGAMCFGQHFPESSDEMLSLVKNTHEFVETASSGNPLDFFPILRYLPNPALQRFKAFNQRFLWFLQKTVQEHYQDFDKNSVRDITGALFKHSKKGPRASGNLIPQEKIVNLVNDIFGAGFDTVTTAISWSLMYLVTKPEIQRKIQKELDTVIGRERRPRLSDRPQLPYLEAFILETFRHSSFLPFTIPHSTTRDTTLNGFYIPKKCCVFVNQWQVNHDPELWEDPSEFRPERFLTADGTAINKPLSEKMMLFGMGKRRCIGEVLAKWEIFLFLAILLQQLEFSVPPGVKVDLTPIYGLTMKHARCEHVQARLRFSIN"}, "[8]": {"target": "Cytochrome P450 2C9 (Homo sapiens, UniProt P11712)", "sequence (P11712 whole entry)": "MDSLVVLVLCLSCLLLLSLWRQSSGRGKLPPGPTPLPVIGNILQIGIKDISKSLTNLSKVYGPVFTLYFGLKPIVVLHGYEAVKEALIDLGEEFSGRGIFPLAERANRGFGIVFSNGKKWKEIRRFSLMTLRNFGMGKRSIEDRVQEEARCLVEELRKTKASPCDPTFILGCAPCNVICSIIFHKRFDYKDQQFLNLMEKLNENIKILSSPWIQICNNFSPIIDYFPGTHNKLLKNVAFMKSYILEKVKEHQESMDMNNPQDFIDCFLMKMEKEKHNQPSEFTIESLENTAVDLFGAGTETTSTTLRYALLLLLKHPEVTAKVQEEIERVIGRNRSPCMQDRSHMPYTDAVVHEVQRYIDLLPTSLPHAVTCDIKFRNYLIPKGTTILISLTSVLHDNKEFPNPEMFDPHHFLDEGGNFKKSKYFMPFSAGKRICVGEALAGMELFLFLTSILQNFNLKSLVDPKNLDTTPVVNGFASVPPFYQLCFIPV"}, "[9]": {"assay": "intracellular Trypanosoma cruzi inhibitors in host cells – cell-based, plate reader, cherry-pick samples, set 3, dose response (AID 651818);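 note: compounds incubated with infected cells for about four days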", "assay_type": "functional"}, "[10]": {"target": "T3, Sentrin-specific protease 8 (Homo sapiens, UniProt Q96LD8)", "T3 sequence (Q96LD8 whole entry)": "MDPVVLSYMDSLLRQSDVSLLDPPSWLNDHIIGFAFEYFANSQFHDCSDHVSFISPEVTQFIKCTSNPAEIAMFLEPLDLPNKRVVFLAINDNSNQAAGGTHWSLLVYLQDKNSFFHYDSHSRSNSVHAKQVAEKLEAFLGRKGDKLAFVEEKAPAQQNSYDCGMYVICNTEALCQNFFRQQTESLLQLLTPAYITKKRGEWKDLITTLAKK", "assay_type": "functional"}, "[11]": {"target": "T3, Sentrin-specific protease 8", "assay_type": "functional", "remark": "listed apart in the source"}, "[12]": {"target": "T4, Histone-lysine N-methyltransferase NSD2 (Homo sapiens, UniProt O96028)", "T4 sequence (O96028 whole entry)": "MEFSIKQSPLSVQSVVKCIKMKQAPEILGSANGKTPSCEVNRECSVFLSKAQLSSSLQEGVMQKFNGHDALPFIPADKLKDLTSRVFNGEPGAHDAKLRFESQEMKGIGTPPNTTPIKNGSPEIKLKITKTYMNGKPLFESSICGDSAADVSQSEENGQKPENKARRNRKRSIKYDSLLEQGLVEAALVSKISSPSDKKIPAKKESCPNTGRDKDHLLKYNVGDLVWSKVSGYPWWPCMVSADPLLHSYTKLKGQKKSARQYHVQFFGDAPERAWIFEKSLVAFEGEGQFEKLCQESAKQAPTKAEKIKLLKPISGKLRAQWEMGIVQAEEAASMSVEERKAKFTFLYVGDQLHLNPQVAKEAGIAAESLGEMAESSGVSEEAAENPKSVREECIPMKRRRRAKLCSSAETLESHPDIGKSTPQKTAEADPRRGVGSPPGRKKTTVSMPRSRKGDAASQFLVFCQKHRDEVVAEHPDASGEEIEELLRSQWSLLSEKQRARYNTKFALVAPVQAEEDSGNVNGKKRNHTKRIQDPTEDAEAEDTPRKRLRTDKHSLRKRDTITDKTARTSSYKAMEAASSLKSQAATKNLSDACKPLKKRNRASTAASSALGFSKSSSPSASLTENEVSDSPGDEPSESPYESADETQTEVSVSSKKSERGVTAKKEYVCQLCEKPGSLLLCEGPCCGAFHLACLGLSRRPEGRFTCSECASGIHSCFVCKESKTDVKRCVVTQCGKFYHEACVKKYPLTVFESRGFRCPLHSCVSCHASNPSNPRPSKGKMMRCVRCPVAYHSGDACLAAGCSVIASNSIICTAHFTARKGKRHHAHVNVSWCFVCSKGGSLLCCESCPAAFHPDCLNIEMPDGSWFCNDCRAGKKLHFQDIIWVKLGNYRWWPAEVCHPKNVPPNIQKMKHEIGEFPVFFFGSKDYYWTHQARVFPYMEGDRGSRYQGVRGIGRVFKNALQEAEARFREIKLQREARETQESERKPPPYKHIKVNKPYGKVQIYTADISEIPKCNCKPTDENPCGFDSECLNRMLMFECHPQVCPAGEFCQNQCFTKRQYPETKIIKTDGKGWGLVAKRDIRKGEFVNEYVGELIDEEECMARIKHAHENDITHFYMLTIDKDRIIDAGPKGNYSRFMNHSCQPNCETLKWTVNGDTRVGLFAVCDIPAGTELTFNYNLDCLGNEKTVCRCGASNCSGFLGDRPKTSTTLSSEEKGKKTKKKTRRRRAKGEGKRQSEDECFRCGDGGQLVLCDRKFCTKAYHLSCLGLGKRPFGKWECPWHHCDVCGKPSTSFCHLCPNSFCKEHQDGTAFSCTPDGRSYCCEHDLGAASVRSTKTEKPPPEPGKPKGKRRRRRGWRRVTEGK", "assay_type": "biochemical"}, "[13]": {"assay": "luciferase reporter signal suppression in cells – H4 neuroglioma cells, luminescence, dose response (AID 1990)", "assay_type": "functional, cell-based"}, "[14]": {"assay": "Luminescence Cell-Based Dose Response HTS to Identify Inhibitors of 5'UTR Stem-Loop Driven Prion Protein mRNA Translation in H4 Neuroglioblastoma Cells. [Related pubchem assays: 1827 (Project Summary), 1813 (Primary HTS)]", "assay_type": "functional"}, "[15]": {"assay": "alpha-synuclein stem-loop luciferase translation blockers – H4 neuroglioma cells, luminescence, confirmation (AID 1988)", "assay_type": "functional, cell-based"}, "[16]": {"tested_on": "HEK293", "assay": "EBV LMP1 TES2 canonical NF-kB signalling blockers – cell-based, HEK293, luciferase, cherry-pick, dose response (AID 588343)", "assay_type": "functional", "conditions": "Homo sapiens"}, "[17]": {"assay": "cells", "assay_type": "functional, cell-based"}, "[18]": {"target": "T5, Nuclear receptor subfamily 0 group B member 1 (Homo sapiens, UniProt P51843)", "T5 sequence (P51843 whole entry)": "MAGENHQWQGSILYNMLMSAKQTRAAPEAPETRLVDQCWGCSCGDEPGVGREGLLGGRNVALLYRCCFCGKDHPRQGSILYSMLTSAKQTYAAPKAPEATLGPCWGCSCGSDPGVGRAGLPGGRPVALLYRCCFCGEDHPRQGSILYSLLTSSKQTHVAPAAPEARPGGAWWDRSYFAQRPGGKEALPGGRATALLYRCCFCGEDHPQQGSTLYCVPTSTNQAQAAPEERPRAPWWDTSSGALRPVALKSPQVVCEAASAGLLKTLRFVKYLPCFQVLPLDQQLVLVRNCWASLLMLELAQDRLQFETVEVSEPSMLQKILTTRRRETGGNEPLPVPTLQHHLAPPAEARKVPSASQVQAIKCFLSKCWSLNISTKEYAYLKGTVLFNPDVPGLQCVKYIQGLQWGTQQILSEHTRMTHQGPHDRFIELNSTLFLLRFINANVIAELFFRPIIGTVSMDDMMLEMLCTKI", "assay_type": "functional, cell-based"}, "[19]": {"assay": "blockers of bursicon-stimulated LGR2 cAMP reporter – cell-based, HEK293, CRE-luciferase reporter, cherry pick, set 2, dose response (AID 743343);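 note: transfected cells were stimulated with diluted bursicon conditioned medium after compound addition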", "assay_type": "functional"}, "[20]": {"assay": "blockade of melanocortin 4 receptor signaling – cell-based, plate reader, cherry pick, counter-screen for LGR2 antagonist project, dose response (AID 743444);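 note: transfected HEK 293 cells stimulated with alpha-MSH peptide; potency of inhibitors of the alpha-MSH evoked signal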", "assay_type": "functional"}, "[21]": {"tested_on": "INS1", "assay": "INS-1E survival protection against cytokine death – cell-based, luminescence, retest, dose response (AID 449756);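 note: cell death triggered by IL-1 beta plus TNF-alpha plus IFN-gamma mixture; protective hits raise ATP signal compared with cytokine alone wells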", "assay_type": "functional", "conditions": "Rattus norvegicus"}, "[22]": {"target": "Mu-type opioid receptor (Homo sapiens, UniProt P35372)", "sequence (P35372 whole entry)": "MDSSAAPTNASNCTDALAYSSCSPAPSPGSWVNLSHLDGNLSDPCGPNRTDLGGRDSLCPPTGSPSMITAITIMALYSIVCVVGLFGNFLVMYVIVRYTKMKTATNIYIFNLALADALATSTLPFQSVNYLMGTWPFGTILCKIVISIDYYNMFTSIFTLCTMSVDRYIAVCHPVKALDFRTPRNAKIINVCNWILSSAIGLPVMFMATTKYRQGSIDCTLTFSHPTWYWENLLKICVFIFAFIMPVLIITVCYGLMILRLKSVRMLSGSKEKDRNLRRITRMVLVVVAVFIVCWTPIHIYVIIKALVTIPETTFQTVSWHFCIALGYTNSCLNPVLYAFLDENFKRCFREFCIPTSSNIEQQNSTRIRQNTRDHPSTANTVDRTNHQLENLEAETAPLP", "assay_type": "functional, cell-based"}, "[23]": {"target": "5-hydroxytryptamine receptor 2A (Mus musculus, UniProt P35363)", "sequence (P35363 whole entry)": "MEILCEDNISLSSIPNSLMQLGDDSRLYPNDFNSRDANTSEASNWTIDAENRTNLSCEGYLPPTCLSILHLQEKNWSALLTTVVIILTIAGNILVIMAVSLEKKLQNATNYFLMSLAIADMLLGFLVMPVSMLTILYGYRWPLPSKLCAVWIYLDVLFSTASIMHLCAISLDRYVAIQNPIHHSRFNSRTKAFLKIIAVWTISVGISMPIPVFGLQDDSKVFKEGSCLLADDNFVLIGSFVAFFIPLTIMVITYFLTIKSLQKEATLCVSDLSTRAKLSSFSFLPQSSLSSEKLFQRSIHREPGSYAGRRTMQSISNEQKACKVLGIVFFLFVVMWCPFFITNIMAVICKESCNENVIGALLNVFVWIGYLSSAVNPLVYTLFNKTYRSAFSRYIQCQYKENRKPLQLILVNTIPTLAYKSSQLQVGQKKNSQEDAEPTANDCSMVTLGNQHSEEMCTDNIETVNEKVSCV", "assay_type": "functional, cell-based"}}, "note": "Activity calls are given as the source filed them.", "data": [{"smiles": "O=C(c1ccc2ccccc2c1)N1CCN(S(=O)(=O)/C=C/c2ccccc2)CC1", "values": [{"measurement": "EC50", "setting": "[1]", "result": "1.1 µM (active)"}, {"measurement": "EC50", "setting": "[2]", "result": "> 30 µM (not active)"}, {"measurement": "IC50", "setting": "[3]", "result": "> 80 µM (inactive)"}]}, {"smiles": "CCOC(=O)c1[nH]c(C(=O)O)c(CCC(=O)OC)c1C", "values": [{"measurement": "IC50", "setting": "[4]", "result": "> 59.6 µM (inactive)"}, {"measurement": "IC50", "setting": "[5]", "result": "> 59.6 µM (inactive)"}, {"measurement": "IC50", "setting": "[6]", "result": "29.4 µM (inactive)"}, {"measurement": "AC50", "setting": "[7]", "result": "0.251 µM (inconclusive)"}, {"measurement": "AC50", "setting": "[8]", "result": "31.6 µM (inconclusive)"}]}, {"smiles": "C[C@@H]1CN([C@@H](C)CO)C(=O)c2cccc(NC(=O)Nc3ccc4c(c3)OCO4)c2O[C@H]1CN(C)Cc1ccc(Oc2ccccc2)cc1", "values": [{"measurement": "AC50", "setting": "[9]", "result": "1.92 µM (active)"}]}, {"smiles": "Cc1n[nH]c(O)c1C(c1ccc(-c2ccc(Cl)cc2)o1)c1c(C)n[nH]c1O", "values": [{"measurement": "IC50", "setting": "[10]", "result": "36.3 µM (active)"}, {"measurement": "IC50", "setting": "[11]", "result": "12.9 µM (active)"}, {"measurement": "AC50", "setting": "[12]", "result": "8.22 µM (active)"}]}, {"smiles": "C[C@@H]1CN([C@H](C)CO)C(=O)Cc2cc(NS(=O)(=O)c3ccccc3)ccc2O[C@H]1CN(C)Cc1ccc(Cl)c(Cl)c1", "values": [{"measurement": "AC50", "setting": "[9]", "result": "3.13 µM (active)"}]}, {"smiles": "COC(=O)c1ccc2nc(-c3cccc(N)c3)cn2c1", "values": [{"measurement": "EC50", "setting": "[13]", "result": "> 60 µM (not active)"}, {"measurement": "EC50", "setting": "[14]", "result": "> 60 µM (not active)"}, {"measurement": "EC50", "setting": "[15]", "result": "6.89 µM (active)"}, {"measurement": "AC50", "setting": "[16]", "result": "2.21 µM (active)"}, {"measurement": "IC50", "setting": "[17]", "result": "> 67.5 µM (inactive)"}, {"measurement": "IC50", "setting": "[18]", "result": "> 0.834 µM (active)"}, {"measurement": "AC50", "setting": "[19]", "result": "3.22 µM (active)"}, {"measurement": "AC50", "setting": "[20]", "result": "2.62 µM (active)"}]}, {"smiles": "O=C(CSc1nnc(NC(=O)c2cc(Br)ccc2Cl)s1)NCC1CCCO1", "note": "(configuration not stated)", "values": [{"measurement": "IC50", "setting": "[4]", "result": "> 59.6 µM (inactive)"}, {"measurement": "IC50", "setting": "[5]", "result": "> 59.6 µM (inactive)"}, {"measurement": "IC50", "setting": "[6]", "result": "> 59.6 µM (inactive)"}]}, {"smiles": "c1cnc(N2CCN(Cc3c[nH]c4ccccc34)CC2)nc1", "values": [{"measurement": "AC50", "setting": "[21]", "result": "4.57 µM (active)"}, {"measurement": "EC50", "setting": "[22]", "result": "92.5 µM (inactive)"}, {"measurement": "EC50", "setting": "[23]", "result": "0.424 µM (active)"}]}]}
